Values of other authors in patent publication US20140363484A1, “FIBROUS BIO-DEGRADABLE POLYMERIC WAFERS SYSTEM FOR THE LOCAL DELIVERY OF THERAPEUTIC AGENTS IN COMBINATIONS” (Amrita Vishwa Vidyapeetham, priority 2012, published 2014).

Details: under physiological conditions

half-life: 1.8 h
SMILES: Cn1nnc2c(C(N)=O)ncn2c1=O [temozolomide]
